In ChEMBL document CHEMBL1201862, “PubChem BioAssay data set” (2004):
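In this assay, cells in 96-well plates receive the compound at five concentrations for 48 hours. Endpoints are linearly interpolated between the surrounding concentrations. GI50: concentration for 50% inhibition of growth.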 Active and inactive are the calls of the source. Rule as the data show it: active = GI50 up to about 1.1 µM and inactive = higher.

Tests used:
Assay in all cases: NCI tumour cell line growth inhibition, 48 h
A498 = tested on: A498
HOP-92 = tested on: HOP-92
KM12 = tested on: KM12
M14 = tested on: M14
MDA-N = tested on: MDA-N
MOLT-4 = tested on: MOLT-4
NCI-H460 = tested on: NCI-H460
NCI-H522 = tested on: NCI-H522
OVCAR-3 = tested on: OVCAR-3
SF-295 = tested on: SF-295
SK-MEL-28 = tested on: SK-MEL-28
SK-MEL-2 = tested on: SK-MEL-2
SK-MEL-5 = tested on: SK-MEL-5
SNB-75 = tested on: SNB-75
T47D = tested on: T47D
TK-10 = tested on: TK-10
UACC-257 = tested on: UACC-257
UO-31 = tested on: UO-31
DU-145 = tested on: DU-145
HCC 2998 = tested on: HCC 2998

Structure (SMILES)	GI50 (A498)	GI50 (HOP-92)	GI50 (KM12)	GI50 (M14)	GI50 (MDA-N)	GI50 (MOLT-4)	GI50 (NCI-H460)	GI50 (NCI-H522)	GI50 (OVCAR-3)	GI50 (SF-295)	GI50 (SK-MEL-28)	GI50 (SK-MEL-2)	GI50 (SK-MEL-5)	GI50 (SNB-75)	GI50 (T47D)	GI50 (TK-10)	GI50 (UACC-257)	GI50 (UO-31)	GI50 (DU-145)	GI50 (HCC 2998)
COC(=O)C(/C(=N/N)C(=O)Nc1cc(Cl)c(Cl)cc1Cl)c1nc2ccc(Cl)cc2nc1O (stereo unspecified)	> 100 µM (inactive)	> 100 µM (inactive)	> 100 µM (inactive)	> 100 µM (inactive)	> 100 µM (inactive)	0.0515 µM (active)	> 100 µM (inactive)	38.9 µM (inactive)	95.3 µM (inactive)	> 100 µM (inactive)	> 100 µM (inactive)	> 100 µM (inactive)	> 100 µM (inactive)	> 100 µM (inactive)	> 100 µM (inactive)	> 100 µM (inactive)	> 100 µM (inactive)	42.5 µM (inactive)		
Cc1nc2cccc([N+](=O)[O-])c2n1CCCN(C)C	> 100 µM (inactive)		> 100 µM (inactive)	22.6 µM (inactive)	> 100 µM (inactive)		> 100 µM (inactive)	> 100 µM (inactive)	> 100 µM (inactive)	> 100 µM (inactive)	> 100 µM (inactive)	> 100 µM (inactive)	> 100 µM (inactive)	> 100 µM (inactive)	> 100 µM (inactive)	> 100 µM (inactive)	> 100 µM (inactive)	16.8 µM (inactive)	> 100 µM (inactive)	> 100 µM (inactive)
CCn1c(SCC(=O)NNC(=S)Nc2ccc(F)cc2)nc2ccccc2c1=O	> 100 µM (inactive)		> 100 µM (inactive)	> 100 µM (inactive)	> 100 µM (inactive)	44.4 µM (inactive)	0.472 µM (active)	48 µM (inactive)	> 100 µM (inactive)	> 100 µM (inactive)	> 100 µM (inactive)	> 100 µM (inactive)	> 100 µM (inactive)	> 100 µM (inactive)	57.7 µM (inactive)	> 100 µM (inactive)	> 100 µM (inactive)	17.9 µM (inactive)	> 100 µM (inactive)	> 100 µM (inactive)
CCOC(=O)c1c(N)sc2c1C(C(=O)OCC)CC2 (stereo unspecified)	14.3 µM (inactive)	> 100 µM (inactive)	> 100 µM (inactive)	> 100 µM (inactive)	> 100 µM (inactive)	35.6 µM (inactive)	62.1 µM (inactive)				> 100 µM (inactive)	> 100 µM (inactive)	> 100 µM (inactive)	79.3 µM (inactive)	18.2 µM (inactive)	> 100 µM (inactive)	> 100 µM (inactive)	62.4 µM (inactive)		> 100 µM (inactive)
O=C1C2CCCCC2C(=O)N1n1c(Cc2ccccc2)n[nH]c1=O (stereo unspecified)	> 100 µM (inactive)	> 100 µM (inactive)	> 100 µM (inactive)	> 100 µM (inactive)	> 100 µM (inactive)	> 100 µM (inactive)	> 100 µM (inactive)	> 100 µM (inactive)	> 100 µM (inactive)	> 100 µM (inactive)		> 100 µM (inactive)	> 100 µM (inactive)	> 100 µM (inactive)	> 100 µM (inactive)	> 100 µM (inactive)	> 100 µM (inactive)	> 100 µM (inactive)		> 100 µM (inactive)
COC(=O)[C@@H]1C[C@@]2(C3C=CN(C(=O)C(F)(F)F)C=C3)c3ccccc3N(C(=O)C(F)(F)F)[C@H]2N1C(=O)OC	> 100 µM (inactive)	34.1 µM (inactive)	> 100 µM (inactive)	> 100 µM (inactive)		61.5 µM (inactive)	> 100 µM (inactive)	26.8 µM (inactive)	90.8 µM (inactive)	> 100 µM (inactive)	39.1 µM (inactive)		70 µM (inactive)	20.1 µM (inactive)	46.7 µM (inactive)	16.9 µM (inactive)	> 100 µM (inactive)	> 100 µM (inactive)	> 100 µM (inactive)	57.8 µM (inactive)
O=C1c2cc(Cl)ccc2N=C(NCCCl)C2CSCN12 (stereo unspecified)	> 100 µM (inactive)		> 100 µM (inactive)	> 100 µM (inactive)	> 100 µM (inactive)	> 100 µM (inactive)	> 100 µM (inactive)	24.3 µM (inactive)	> 100 µM (inactive)	> 100 µM (inactive)	> 100 µM (inactive)	> 100 µM (inactive)	> 100 µM (inactive)		> 100 µM (inactive)	> 100 µM (inactive)	> 100 µM (inactive)	> 100 µM (inactive)	> 100 µM (inactive)	> 100 µM (inactive)
O=C1OCC(c2ccc(Cl)cc2)=C1Cl	82 µM (inactive)	31.9 µM (inactive)	15.4 µM (inactive)	18.8 µM (inactive)		32.1 µM (inactive)	17.8 µM (inactive)	18.5 µM (inactive)	20.7 µM (inactive)	39.9 µM (inactive)	49.9 µM (inactive)	22.9 µM (inactive)	17.1 µM (inactive)	> 100 µM (inactive)	34.7 µM (inactive)	28.3 µM (inactive)	40 µM (inactive)	18.1 µM (inactive)	49.5 µM (inactive)	29 µM (inactive)
O=S(=O)(N/C(=N\O)Nc1ccc(Cl)cc1)c1cc(C(F)(F)F)cc(C(F)(F)F)c1		16.2 µM (inactive)	19.7 µM (inactive)	17.4 µM (inactive)	21 µM (inactive)	19 µM (inactive)	26.4 µM (inactive)	18.9 µM (inactive)	16 µM (inactive)	18.3 µM (inactive)	19.2 µM (inactive)	17.4 µM (inactive)	18 µM (inactive)	16 µM (inactive)	22.4 µM (inactive)	19.2 µM (inactive)	20.9 µM (inactive)		21.3 µM (inactive)	
Nc1ncnc2nc(N3CCN(CCO)CC3)[nH]c12	> 100 µM (inactive)		> 100 µM (inactive)	> 100 µM (inactive)	> 100 µM (inactive)	50.6 µM (inactive)	> 100 µM (inactive)	> 100 µM (inactive)	> 100 µM (inactive)	> 100 µM (inactive)	> 100 µM (inactive)	> 100 µM (inactive)	> 100 µM (inactive)		> 100 µM (inactive)	> 100 µM (inactive)	> 100 µM (inactive)	> 100 µM (inactive)	> 100 µM (inactive)	> 100 µM (inactive)
Cc1ccc(C(=O)Nc2ccc(CP(=O)(O)O)cc2CP(=O)(O)O)cc1NC(=O)c1cccc(N)c1	> 100 µM (inactive)		> 100 µM (inactive)	> 100 µM (inactive)	> 100 µM (inactive)	> 100 µM (inactive)	> 100 µM (inactive)	> 100 µM (inactive)	> 100 µM (inactive)	> 100 µM (inactive)	> 100 µM (inactive)	> 100 µM (inactive)	> 100 µM (inactive)	> 100 µM (inactive)	> 100 µM (inactive)	> 100 µM (inactive)	> 100 µM (inactive)	> 100 µM (inactive)	> 100 µM (inactive)	> 100 µM (inactive)
CCN(CC(COc1ccc2c(c1)[n+]([O-])nc(N)[n+]2[O-])OC(C)=O)C(C)=O (stereo unspecified)	25.9 µM (inactive)		95.5 µM (inactive)	89.3 µM (inactive)	85.7 µM (inactive)	20.8 µM (inactive)	> 10 µM (inactive)	16.4 µM (inactive)	76.2 µM (inactive)	> 100 µM (inactive)	> 100 µM (inactive)	> 100 µM (inactive)	32 µM (inactive)	35.8 µM (inactive)	33.9 µM (inactive)	> 100 µM (inactive)	76.7 µM (inactive)	72.3 µM (inactive)	> 10 µM (inactive)	
CC1=NOC2(C1)C(=O)Nc1ccccc12 (stereo unspecified)	34.3 µM (inactive)		> 100 µM (inactive)	> 100 µM (inactive)	> 100 µM (inactive)	> 100 µM (inactive)	> 100 µM (inactive)	> 100 µM (inactive)	> 100 µM (inactive)	> 100 µM (inactive)	> 100 µM (inactive)	> 100 µM (inactive)	60.5 µM (inactive)	66.2 µM (inactive)	> 100 µM (inactive)	> 100 µM (inactive)	> 100 µM (inactive)	0.0121 µM (active)	> 100 µM (inactive)	> 100 µM (inactive)
Clc1ccc2nc3c(c(-c4ccccc4)nn3-c3ccccc3)c(-c3ccccc3)c2c1		> 100 µM (inactive)	> 100 µM (inactive)	> 100 µM (inactive)	> 100 µM (inactive)	> 100 µM (inactive)	> 100 µM (inactive)	> 100 µM (inactive)	> 100 µM (inactive)	> 100 µM (inactive)	> 100 µM (inactive)	> 100 µM (inactive)	> 100 µM (inactive)	> 100 µM (inactive)	> 100 µM (inactive)	> 100 µM (inactive)		> 100 µM (inactive)	> 100 µM (inactive)	> 100 µM (inactive)
Cc1ncc([N+](=O)[O-])n1CCN(C)CCCCn1ccnc1[N+](=O)[O-]	> 100 µM (inactive)		> 100 µM (inactive)	> 100 µM (inactive)	> 100 µM (inactive)	> 100 µM (inactive)	> 100 µM (inactive)		> 100 µM (inactive)	> 100 µM (inactive)	> 100 µM (inactive)	> 100 µM (inactive)	> 100 µM (inactive)	> 100 µM (inactive)	> 100 µM (inactive)	> 100 µM (inactive)	> 100 µM (inactive)	> 100 µM (inactive)	> 100 µM (inactive)	> 100 µM (inactive)
